Measured values from patent US20260102377A1, “COMPOSITIONS AND METHODS FOR TREATING MYASTHENIA GRAVIS” (priority 2022, published 2026).
“And” between values parts separate entries of the source, which are not always exact repeats. Equal values may be shown once. “Also recorded” adds a separate entry of the source.

How the values were obtained:
CIC-1 = molecular target: T1, CIC-1 (Rattus norvegicus, UniProt P35524); assay: Resting membrane conductance (Gm) in muscle fibres of isolated nerve-muscle preparations; assay type: cell-based
T1 construct: from tissue; host or cells: soleus or diaphragm muscle of healthy and EAMG Lewis rats
T1 sequence (P35524 1-994): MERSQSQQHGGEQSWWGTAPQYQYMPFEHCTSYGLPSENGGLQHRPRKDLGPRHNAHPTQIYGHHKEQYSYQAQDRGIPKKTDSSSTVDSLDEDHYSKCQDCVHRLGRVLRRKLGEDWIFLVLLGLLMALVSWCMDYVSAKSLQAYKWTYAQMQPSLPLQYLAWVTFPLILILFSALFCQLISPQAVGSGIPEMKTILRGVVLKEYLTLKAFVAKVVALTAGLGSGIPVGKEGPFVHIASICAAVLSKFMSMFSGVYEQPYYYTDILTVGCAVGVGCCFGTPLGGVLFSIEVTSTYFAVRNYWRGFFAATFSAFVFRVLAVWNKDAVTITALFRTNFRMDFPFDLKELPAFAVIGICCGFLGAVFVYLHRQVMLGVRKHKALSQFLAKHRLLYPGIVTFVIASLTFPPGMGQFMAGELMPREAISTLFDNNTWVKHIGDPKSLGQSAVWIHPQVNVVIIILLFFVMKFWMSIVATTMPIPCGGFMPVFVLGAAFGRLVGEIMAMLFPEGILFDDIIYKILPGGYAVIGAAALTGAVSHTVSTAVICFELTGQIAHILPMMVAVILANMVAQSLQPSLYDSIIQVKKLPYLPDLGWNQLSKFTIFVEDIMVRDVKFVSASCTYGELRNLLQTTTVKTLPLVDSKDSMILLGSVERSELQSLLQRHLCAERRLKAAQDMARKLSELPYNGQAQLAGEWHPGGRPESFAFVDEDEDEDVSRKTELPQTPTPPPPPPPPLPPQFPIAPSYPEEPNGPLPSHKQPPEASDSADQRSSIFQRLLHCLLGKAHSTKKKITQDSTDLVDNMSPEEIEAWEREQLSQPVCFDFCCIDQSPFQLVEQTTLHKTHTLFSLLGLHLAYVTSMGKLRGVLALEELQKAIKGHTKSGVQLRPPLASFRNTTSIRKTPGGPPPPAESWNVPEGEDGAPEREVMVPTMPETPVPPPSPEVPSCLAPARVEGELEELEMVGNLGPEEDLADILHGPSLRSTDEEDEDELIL
From the text: To allow for measurements of electrophysiological properties at the cellular level and for measurements of force, it was necessary to isolate nerve-muscle preparations from the rats. To this end, animals were sacrificed, and muscles were dissected out with 1 to 3 cm of intact nerve. The nerve-muscle preparations were then transferred to the organ baths used for the particular experiments (see below) and perfused with Normal Krebs-Ringer (NKR) solution, consisting of (in mM); 122 NaCl, 25 NaHCO3, 2.8 KCl, 1.2 KH2PO4, 1.2 MgSO4 1.27 CaCl2 and 5 D-glucose. This NKR solution was continuously gassed with a mixture of 95% oxygen and 5% CO2, to maintain a pH of approx. 7.4. In some experiments methyl-sulphate was used to replace Cl^− in the solution. All chemicals used were of analytical grade.

EAMG rats = assay: Grip strength test after single dose of Mestinon and CIC-1 inhibitor alone or in combination; assay type: in vivo, rat
Description: To induce EAMG, 250 μL of emulsion of Complete Freund's Adjuvant, consisting of heat-inactivated Mycobacterium tuberculosis H37Ra in non-metabolizable oils, together with Phosphate-Buffered Saline (PBS) and 80 μg of the extracellular α-domain peptide fragment of the human nicotinic acetylcholine receptor (antigen) was injected subcutaneously in seven-week-old, anaesthetized Lewis rats. The disease-inducing antigen was supplied by the Hellenic Pasteur institute3. The emulsion was deposited at the tail base, left hindleg, and right foreleg. After injection, animals were allowed to recover and returned to their home cage maintained in ventilated racks under controlled temperature (20 to 22° C.) and humidity (˜55%) control, under a 12-h light/12-h dark cycle with food and water provided ad libitum. The animals had pathogen free status and the housing and changing system was designed to assure that the pathogen free status was preserved during the study. The EAMG rats were observed, weighed, and scored for MG symptoms weekly until symptoms of MG developed, whereafter animals were observed daily.
In EAMG animals with severe MG symptoms the effects of CIC-1 inhibitor and Mestinon (pyridostigmine) alone or in combination was assessed. […] The study was blinded to both the experimenter and during subsequent analysis. Animals were subjected to grip strength test before compound administration, as described above and then dosed per oral with either 0.375 mg/kg pyridostigmine bromide (Mestinon) (CAS-no 101-26-8), 20 mg/kg NMD670 or a combination of both pyridostigmine and NMD670. Grip strength was tested 45 minutes post dosing. […] The change in grip strengths was calculated for individual animals relative to the results obtained prior to administration of test article and then averaged.
Grip strength was measured on a BIOSEB BIO-GT3 Grip strength meter (force transducer, S/N 180271). […] Care was taken to ensure that the force recorded reflected the grip strength of the rat and not the force of the pulls conducted by the operator. […]

Tablet dissolution = assay type: physicochemical; details: after a maximum of 60 minutes; USP2 paddles 75 RPM, 900 ml dissolution media pH 6.8, 37° C.
Description: Tablet dissolution was determined as follows.
Dissolution Media pH 6.8 was prepared by dissolving 27.3 g Na2HPO4·2H2O and 4.9 g Citric Acid in 1 L Milli-Q water. The pH was measured and adjusted if necessary to pH 6.8.
900 mL of dissolution media pH 6.8 was accurately transferred into each dissolution vessel. The apparatus was assembled, and the dissolution media was heated to 37° C.±0.5° C. The T=0 point was extracted from each vessel prior to dropping the tablets into the dissolution vessels. One tablet was gently dropped into each dissolution vessel, and rotation of the paddle was immediately started. Samples were taken that the sample extraction timepoints and analysed using the HPLC method.

healthy subjects = assay: Phase I clinical trial Part A: tolerability/safety of single doses
From the text: Part A1 tested single doses of NMD670 in a double-blind, randomised, placebo-controlled, partial crossover and dose-escalating design in healthy male subjects (see the WHO International Clinicals Trials Registry Platform study reference NL8692). A total of nine dose levels were investigated in three cohorts of subjects. Each cohort consisted of nine subjects, each subject had three study sessions. Each subject received escalating doses of NMD670 on two occasions and placebo on one occasion, the order will be randomized in a cross-over fashion. Each dose level was randomized in a 6:3 ratio (active vs. placebo).
Therefore, for the remaining 2 doses, a full cross-over design investigating one previously tested dose level was used. […] To determine the effect of food on the exposure of single oral doses of NMD670, dose level 5 was administered in both the fasted and fed condition. Subjects who received dose level 5 returned for a fourth visit in which they received dose level 5 (or matching placebo) in the fed condition, in the same randomization as the chosen dose level in the fasted condition.
Part A2 of the study investigated the safety, tolerability and pharmacokinetics of NMD670 in 8 healthy female subjects of non-childbearing potential, in a randomized, double-blind, placebo-controlled single dose administration of NMD670. Subjects received 800 mg NMD670. Subjects were randomized in a 6:2 ratio (active vs. placebo).
The following endpoints were determined at time points indicated in the Schedule of Assessments. • Serious adverse events (SAEs) and adverse events (AEs) were collected throughout the study at every study visit. • Concomitant medication • Clinical laboratory tests • Haematology • Chemistry • Urinalysis • Coagulation • Vital signs • Pulse Rate (bpm) • Systolic blood pressure (mmHg) • Diastolic blood pressure (mmHg) • Respiratory rate • ECG • Heart Rate (HR) (bpm), PR, QRS, QT, QTcF • 24-hour Holter recording • Hand grip dynamometry • Grip release profile; time profile from 100% maximum voluntary contraction (MVC) to 5% of the 100% MVC

[1] = of a total of 70 AEs, Part A healthy subjects

For `C[C@H](Oc1ccc(Br)cc1-c1ccon1)C(=O)O` [NMD670, (2S)-2-[4-bromo-2-(1,2-oxazol-3-yl)phenoxy]propanoic acid], the “Membrane conductance (Gm)” value (CIC-1; 20 μM NMD670, rat soleus muscle from healthy (n=20) and EAMG (n=12) animals, before vs after addition) was “statistically significantly reduced Gm”, the “Membrane conductance (Gm) in bathing solution free of Cl−” value (CIC-1; increasing concentration of NMD670, Cl−-free solution) was “did not reduced Gm” and the “Grip strength after administration (significance vs vehicle)” value (EAMG rats; 45 minutes after dosing, 20 mg/kg NMD670, or with 0.375 mg/kg Mestinon) was “significantly increased”. The “Increase in Pulled Force (%)” value (EAMG rats; per oral, 45 minutes post dosing, 0.375 mg/kg Mestinon, 20 mg/kg NMD670 or both) was 15±5% and 14.5 ± 5.1%, the “NMD670 released from the tablets” value (Tablet dissolution) was “Not less than 80%” and the “Healthy subjects with myotonic symptoms” value (healthy subjects; 1200 mg QD, mild in intensity, resolved spontaneously within a few hours) was 2 healthy subjects. For the same molecule, the “AE with dose relationship, reported at the highest dose levels tested” value (healthy subjects; 1200 mg and 1600 mg single dose, healthy subjects) was “transient myotonia”, the Subject discontinuations (healthy subjects; Part A healthy subjects) was “no subject discontinuations” and the “Total number of AEs reported” value (healthy subjects; Part A, 35 healthy subjects, single-ascending dose study) was 70 AEs. The Serum uric acid (healthy subjects; Phase 1 clinical study, considered non-clinically significant) was “dose-dependent decrease in serum uric acid”, the “Intensity of most AEs” value (healthy subjects; Phase 1 healthy subjects) was “mild and mild in intensity” and the Maximum tolerated dose (healthy subjects; healthy subjects, based on myotonia) was 1200 mg QD. The “AEs at least possibly drug-related (number)” value (healthy subjects; [1]) was 47 AEs, the “AEs at least possibly drug-related (proportion)” value (healthy subjects; [1]) was 67% and the “Myotonia at 1600 mg (intensity)” value (healthy subjects; one healthy subject, single dose 1600 mg, spontaneously and fully resolved within hours, dose escalation stopped) was “myotonia of moderate intensity; also recorded: moderate in intensity; also recorded: Myotonia of moderate severity”. The “Serious or severe adverse effects” value (healthy subjects; single doses 50-1600 mg, healthy subjects) was “No serious or severe adverse effects; also recorded: No serious adverse reactions were reported” and the “Relationship between increases in NMD670 dose and incidence of participants with AEs” value (healthy subjects; single doses, healthy subjects) was “no meaningful relationships”.
